Measured values as given in patent publication US10596268B2, “Conjugate of dezocine and polyethylene glycol” (JenKem Technology Co., Ltd. (Beijing), priority 2016, dated 2020).

Tests used:
[1] = Pharmacokinetic experiment: drug concentration in brain tissue of SD rats after oral administration (LC-MS/MS); details: 10 mg/kg; for AUClast Ratio (Brain/Plasma) / AUClast (Brain) / Cmax (Brain) / t1/2 (Brain) / tmax (Brain): SD rats, oral; for AUClast (Brain) / Cmax (Brain) / t1/2 (Brain) / tmax (Brain): brain tissue; for Kp / Tmax / half-life: male, SD, rat, po; for Kp: brain and plasma; for Tmax / half-life: brain
CFA rat model = assay: Pharmacodynamic experiment: Frey's hair pain threshold in CFA rat model; assay type: in vivo, SD rats; details: oral 10 mg/kg; for Pain threshold value, Frey's hair: mean ± standard deviation
[2] = Pharmacokinetic experiment: drug concentration in plasma of SD rats after oral administration (LC-MS/MS); details: 10 mg/kg; for AUClast (Plasma) / Cmax (Plasma) / t1/2 (Plasma) / tmax (Plasma): SD rats, oral; for AUC(0-t) / Cmax / Tmax / half-life: male, SD, rat, po
[3] = in vivo; cited from earlier work
[4] = 0 h (basal value before administration)

SMILES: COCCOCCOCCOCCOCCOCCN[C@H]1[C@H]2CCCCC[C@]1(C)c1cc(O)ccc1C2 [JK-2215D02, Monomethoxyhexaethylene Glycol-Dezocine Conjugate]
- AUClast Ratio (Brain/Plasma) [1]: 0.757
- AUClast (Brain) [1]: 993 ng·h/g
- Cmax (Brain) [1]: 166 ng/g
- t1/2 (Brain) [1]: 18.7 h
- tmax (Brain) [1]: 8 h
- Pain threshold value, Frey's hair (CFA rat model; [4]): 7.8 ± 0.8 g
- Pain threshold value, Frey's hair (CFA rat model; 0.25 h after administration): 10.3 ± 1.2 g
- Pain threshold value, Frey's hair (CFA rat model; 2 h after administration): 12.1 ± 1.5 g
- Pain threshold value, Frey's hair (CFA rat model; 6 h after administration): 13.2 ± 0.9 g
- Pain threshold value, Frey's hair (CFA rat model; 24 h after administration): 10.7 ± 1.5 g
- AUClast (Plasma) [2]: 1312 ng·h/mL
- Cmax (Plasma) [2]: 339 ng/mL
- t1/2 (Plasma) [2]: 4.45 h
- tmax (Plasma) [2]: 3 h

SMILES: C[C@@]12CCCCC[C@@H](Cc3ccc(O)cc31)[C@@H]2N [JK-2215D00, 13-amino-5,6,7,8,9,10,11,12-octahydro-5-methyl-5,11-methylenebenzocyclodecen-3-ol, reference compound]
- AUClast (Brain) [1]: 267 ng·h/g
- Cmax (Brain) [1]: 221 ng/g
- Kp [1]: 1.15
- Tmax [1]: 1 h
- half-life [1]: 2.05 h
- analgesic effect relative to pethidine [3]: 5-9 times
- average peak concentration at which adverse reactions occur [3]: 45 µg/L
- blood concentration producing a potent analgesic effect [3]: 5 to 9 µg/L
- Pain threshold value, Frey's hair (CFA rat model; [4]): 7.7 ± 1.1 g
- Pain threshold value, Frey's hair (CFA rat model; 0.25 h after administration): 9.8 ± 1.0 g
- Pain threshold value, Frey's hair (CFA rat model; 2 h after administration): 10.2 ± 2.7 g
- Pain threshold value, Frey's hair (CFA rat model; 6 h after administration): 9.2 ± 1.4 g
- Pain threshold value, Frey's hair (CFA rat model; 24 h after administration): 7.5 ± 1.8 g
- analgesic effect at 6 h after administration (CFA rat model; 6 h): not significant
- AUC(0-t) [2]: 232 ng·h/mL
- Cmax [2]: 193 ng/mL
- Tmax [2]: 1 h
- half-life [2]: 1.41 h

SMILES: COCCOCCOCCOCCOCCOCCOc1ccc2c(c1)C1(C)CCCCCC(C2)C1N (stereo not drawn) [JK-2215D01, Monomethoxyhexaethylene Glycol-Dezocine Conjugate]
- AUClast Ratio (Brain/Plasma) [1]: 0.734
- AUClast (Brain) [1]: 925 ng·h/g
- Cmax (Brain) [1]: 147 ng/g
- t1/2 (Brain) [1]: 17.6 h
- tmax (Brain) [1]: 8 h
- Pain threshold value, Frey's hair (CFA rat model; [4]): 7.6 ± 0.8 g
- Pain threshold value, Frey's hair (CFA rat model; 0.25 h after administration): 8.7 ± 1.3 g
- Pain threshold value, Frey's hair (CFA rat model; 2 h after administration): 9.1 ± 1.3 g
- Pain threshold value, Frey's hair (CFA rat model; 6 h after administration): 8.7 ± 1.1 g
- Pain threshold value, Frey's hair (CFA rat model; 24 h after administration): 7.8 ± 1.4 g
- AUClast (Plasma) [2]: 1366 ng·h/mL
- Cmax (Plasma) [2]: 345 ng/mL
- t1/2 (Plasma) [2]: 4.33 h
- tmax (Plasma) [2]: 3 h

SMILES: C[C@@]12CCCCC[C@@H](Cc3ccc(O)cc31)[C@@H]2NCCOCCOCCOCCOCCN[C@H]1[C@H]2CCCCC[C@]1(C)c1cc(O)ccc1C2 [JK-2215D03, Pentaethylene Glycol-Dezocine Conjugate]
- AUClast (Brain) [1]: 813 ng·h/g
- Cmax (Brain) [1]: 129 ng/g
- Kp [1]: 0.659
- Tmax [1]: 7 h
- half-life [1]: 19.7 h
- Pain threshold value, Frey's hair (CFA rat model; [4]): 7.7 ± 1.4 g
- Pain threshold value, Frey's hair (CFA rat model; 0.25 h after administration): 9.2 ± 1.4 g
- Pain threshold value, Frey's hair (CFA rat model; 2 h after administration): 11.2 ± 2.0 g
- Pain threshold value, Frey's hair (CFA rat model; 6 h after administration): 11.4 ± 0.9 g
- Pain threshold value, Frey's hair (CFA rat model; 24 h after administration): 10.6 ± 2.0 g
- AUC(0-t) [2]: 1230 ng·h/mL
- Cmax [2]: 344 ng/mL
- Tmax [2]: 2 h
- half-life [2]: 4.12 h
